Test results: patent US10519211B2, “Compounds as peptidic GLP1/glucagon/GIP receptor agonists” (SANOFI, priority 2016, dated 2019)
Numbered stars: 1 amine (or outer) side, 2 acyl side, 3 side chain; on linkers, the order of the positions; unused ones are H or OH. Square brackets hold non-standard residues; d marks the D form. Side chains are listed from the residue outwards. Peptide text beside a SMILES is read from it. * marks the point of attachment. γGlu = O=C(O)[C@H](CCC(=O)[*:2])N[*:1]; Palmitoyl = CCCCCCCCCCCCCCCC(=O)*; AEEA = NCCOCCOCC(=O)O; Aib = CC(C)(N)C(=O)O

Columns and labels:
[1] = target: T1, human GIP receptor (hGIP-R) (Homo sapiens, UniProt P48546); test: cAMP response (HTRF) of HEK-293 cells stably expressing human GIP receptor; assay type: cell-based; conditions: Table 8; cAMP formation
T1 construct: expressed in transfected cells; host or cells: HEK-293
T1 sequence (P48546 22-466): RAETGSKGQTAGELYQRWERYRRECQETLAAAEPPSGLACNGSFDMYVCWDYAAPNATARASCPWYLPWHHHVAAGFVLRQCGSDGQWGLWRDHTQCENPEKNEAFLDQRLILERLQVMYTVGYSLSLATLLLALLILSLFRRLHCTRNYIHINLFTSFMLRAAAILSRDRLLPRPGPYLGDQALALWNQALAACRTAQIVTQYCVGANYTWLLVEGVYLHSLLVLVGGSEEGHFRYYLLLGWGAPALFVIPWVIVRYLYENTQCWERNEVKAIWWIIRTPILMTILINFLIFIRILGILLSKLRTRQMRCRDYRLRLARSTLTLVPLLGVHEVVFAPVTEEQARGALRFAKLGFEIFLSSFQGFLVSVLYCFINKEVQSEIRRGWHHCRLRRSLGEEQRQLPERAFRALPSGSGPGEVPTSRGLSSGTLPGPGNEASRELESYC
Method: cAMP content of cells was determined using a kit from Cisbio Corp. (cat. no. 62AM4PEJ) based on HTRF (Homogenous Time Resolved Fluorescence). For preparation, cells were split into T175 culture flasks and grown overnight to near confluency in medium (DMEM/10% FBS). Medium was then removed and cells washed with PBS lacking calcium and magnesium, followed by proteinase treatment with accutase (Sigma-Aldrich cat. no. A6964). Detached cells were washed and resuspended in assay buffer (1×HBSS; 20 mM HEPES, 0.1% BSA, 2 mM IBMX) and cellular density determined. They were then diluted to 400000 cells/ml and 25 μl-aliquots dispensed into the wells of 96-well plates. For measurement, 25 μl of test compound in assay buffer was added to the wells, followed by incubation for 30 minutes at room temperature.
Potencies of peptidic compounds at the GLP-1, glucagon and GIP receptors were determined by exposing cells expressing human glucagon receptor (hGlucagon R), human GIP receptor (hGIP-R) or human GLP-1 receptor (hGLP-1 R) to the listed compounds at increasing concentrations and measuring the formed cAMP as described in Methods.

[2] = Thioflavin T (ThT) assay for physical stability (fibrillation); assay type: physicochemical; conditions: 3 mg/ml, 100 mM acetate pH 4.5 with m-cresol, shaking at 37° C.
Method: Investigations were carried out to determine fibrillation tendencies under stress conditions by shaking at 37° C. within Fluoroskan Ascent FL.
For the tests in Fluoroskan Ascent FL, 200 μL sample were placed into a 96 well mictrotiter plate PS, flat bottom, Greiner Fluotrac No. 655076. Plates were sealed with Scotch Tape (Quiagen). Samples were stressed by continuous cycles of 10 s shaking at 960 rpm and 50 s rest period at 37° C. The kinetic was monitored by measuring fluorescence intensity every 20 minutes.
Peptides were diluted in a buffer system to a final concentration of 3 mg/ml. 20 μL of a 10.1 mM ThT solution in H2O were added to 2 mL of peptide solution to receive a final concentration of 100 μM ThT. For each sample eight replicates were tested.
Tht buffer system A) 100 mM Acetate pH 4.5 including m-cresol (100 mM Natriumacetat trihydrat, pH adjustment using 2N CH3COOH, 2.7 mg/mL m-cresol) Tht buffer system B) 100 mM citrate buffer pH 6.0
Lag time in hours in Thioflavin T (ThT) assay of peptide samples was determined in Tht buffer system A as described in Methods.

[3] = Dynamic light scattering (DLS), hydrodynamic radius as surrogate for interaction parameter kD; assay type: physicochemical
Method: For every peptide solution, the hydrodynamic radius Rh and the diffusion constant D (related via the Stokes-Einstein equation) were determined as an average over triplicates. Both parameters were determined at different concentrations (e.g., Rh1 and D1: 1 mg/ml and Rh5 and D5: 5 mg/ml) in the same buffer system. The difference of these parameters between low and high peptide concentration is a surrogate for the DLS interaction parameter kD. Rh5<Rh1 or D5>D1 correspond to kD>0 and therefore to repulsive inter-particle interactions that result in improved physical (or colloidal) stability.
DLS buffer system A) 25 mM acetate buffer pH4.5, 3 mg/mL L-Methionine, 2.7 mg/mL m-cresol, 18 mg/mL Glycerol 85%
DLS Method C: DLS measurements were performed on a DynaPro Plate Reader II (Wyatt Technology, Santa Barbara, Calif., US) and using one of the following black, low volume, and non-treated plates: polystyrene 384 assay plate with clear bottom (Corning, N.Y., US), polystyrene 96 assay plate with clear bottom (Corning, N.Y., US), cyclo olefin polymer (COP) 384 assay plate with clear bottom (Aurora, Mont., US), or polystyrene 384 assay plate with clear bottom (Greiner Bio-One, Germany). The data were processed with the Dynamics software provided by Wyatt Technology. Parameters of the particle size distribution were determined with non-negatively constrained least squares (NNLS) methods using DynaLS algorithms. Measurements were taken at 25° C. with an 830 nm laser light source at an angle of 158°.
The hydrodynamic radius radius Rh of peptide samples was determined at different peptide concentrations (1 mg/ml and 5 mg/ml) in DLS buffer system A using DLS method C as described in Methods as surrogate for the DLS interaction parameter kD.

[4] = Chemical stability assessment (UPLC-UV, relative purity loss); assay type: physicochemical; conditions: 1 mg/ml, 25 mM acetate buffer pH 4.5 with m-cresol (buffer system A)
Method: Prior to the chemical stability measurement of a peptide batch, its purity was determined through UPLC/MS. For stability testing the target concentration was 1 mg pure compound/ml. Therefore solutions from solid samples were prepared in a buffer system with a concentration of 1 mg/mL compound based on the previously determined % purity:
Chemical stability buffer system A) 25 mM acetate buffer pH4.5, 3 mg/mL L-Methionine, 2.7 mg/mL m-cresol, 18 mg/mL Glycerol 85%
Peptide solutions were filtered through […] pore size and filled into aliquots under aseptic conditions. At starting point UPLC-UV was performed by injection of 2 μl of the undiluted sample.
For chemical stability testing, aliquots were stored for 28 days at Sand 40° C. After this time course the samples were centrifuged for 15 min at 2500 RCF. Then 2 μl of the undiluted supernatant were analysed with UPLC-UV.
The chemical stability was rated through the relative loss of purity calculated by the equation: [(purity at starting point)−(purity after 28 days at X° C.)]/(purity at starting point)]*100%
The purity is calculated as [(peak area peptide)/(total peak area)]*100%
Peptide samples were prepared in Chemical stability buffer system A and chemical stability was assessed as described in Methods.

[5] = Solubility assessment (UPLC-UV); assay type: physicochemical; conditions: acetate buffer pH 4.5, 2.7 mg/ml m-cresol (buffer system A), target 10 mg/ml
Method: Prior to the solubility measurement of a peptide batch, its purity was determined through UPLC/MS.
Therefore solutions from solid samples were prepared in a buffer systems with a concentration of 10 mg/mL compound based on the previously determined % purity:
Solubility buffer system A) Acetate Buffer pH 4.5, 100 mM sodium acetate trihydrate, 2.7 mg/ml m-Cresol
UPLC-UV was performed after 1 hour of gentle agitation from the supernatant, which was obtained after 15 min of centrifugation at 2500 RCF (relative centrifugal acceleration).
The solubility was determined by the comparison of the UV peak area of 2 μL-injection of a buffered sample diluted 1:10 with a standard curve of a reference peptide with known concentration. The different UV extinction coefficients of sample and reference peptide were calculated based on the different amino acid sequences and considered in the concentration calculation.
Peptide samples were prepared in solubility buffer system A and solubility was assessed as described in Methods.

| SMILES | EC50 [1] | Lag time before increase [2] | Delta Rh [nm] = Rh5 − Rh1 ([3]; DLS buffer system A pH 4.5) | Rh1 [nm] c= 1 mg/ml ([3]; hydrodynamic radius, 1 mg/ml, DLS buffer system A pH 4.5, DLS method C, 25° C.) | Rh5 [nm] c = 5 mg/ml ([3]; hydrodynamic radius, 5 mg/ml, DLS buffer system A pH 4.5, DLS method C, 25° C.) | Chemical stability [relative purity loss 28 days 40° C.] (%) at pH 4.5 [4] | solubility at 1 h [5] |
| --- | --- | --- | --- | --- | --- | --- | --- |
| CCCCCCCCCCCCCCCC(=O)NCCOCCOCC(=O)N[C@@H](CCC(=O)N[C@@H](CCC(=O)NCCCC[C@H](NC(=O)[C@H](CC(C)C)NC(=O)[C@H](CCCCN)NC(=O)[C@H](CO)NC(=O)[C@H](CC(C)C)NC(=O)[C@H](CC(=O)O)NC(=O)[C@H](CO)NC(=O)[C@@H](NC(=O)[C@H](Cc1ccccc1)NC(=O)[C@@H](NC(=O)CNC(=O)[C@H](CCC(N)=O)NC(=O)C(C)(C)NC(=O)[C@@H](N)Cc1c[nH]cn1)[C@@H](C)O)[C@@H](C)O)C(=O)N[C@@H](CCC(=O)O)C(=O)N[C@@H](CCC(=O)O)C(=O)N[C@@H](CCC(N)=O)C(=O)N[C@@H](CCCNC(=N)N)C(=O)N[C@@H](CCC(N)=O)C(=O)NC(C)(C)C(=O)N[C@@H](CCC(=O)O)C(=O)N[C@@H](Cc1ccccc1)C(=O)N[C@H](C(=O)N[C@@H](CCC(=O)O)C(=O)N[C@@H](Cc1c[nH]c2ccccc12)C(=O)N[C@@H](CC(C)C)C(=O)N[C@@H](CCCCN)C(=O)N[C@@H](C)C(=O)NCC(=O)NCC(=O)N[C@@H](Cc1c[nH]cn1)C(=O)N1CCC[C@H]1C(=O)N[C@@H](CO)C(=O)NC(C)(C)C(=O)N[C@@H](CCCCN)C(=O)N1CCC[C@H]1C(=O)N1CCC[C@H]1C(=O)N1CCC[C@H]1C(=O)N[C@@H](CCCCN)C(N)=O)[C@@H](C)CC)C(=O)O)C(=O)O [SEQ ID NO: 18, H-Aib-Q-G-T-F-T-S-D-L-S-K-L-K[gGlu-gGlu-AEEA-Palm]-E-E-Q-R-Q-Aib-E-F-I-E-W-L-K-A-G-G-H-P-S-Aib-K-P-P-P-K-NH2] (H-H[Aib]QGTFTSDLSKLK([γGlu-γGlu-AEEA-Palmitoyl])EEQRQ[Aib]EFIEWLKAGGHPS[Aib]KPPPK-NH2) | 5.6 pM | >45 h |  |  |  |  |  |
| CCCCCCCCCCCCCCCC(=O)NCCOCCOCC(=O)N[C@@H](CCC(=O)N[C@@H](CCC(=O)NCCCC[C@H](NC(=O)[C@H](CC(C)C)NC(=O)[C@H](CCCCN)NC(=O)[C@H](CO)NC(=O)[C@H](CC(C)C)NC(=O)[C@H](CC(=O)O)NC(=O)[C@H](CO)NC(=O)[C@@H](NC(=O)[C@H](Cc1ccccc1)NC(=O)[C@@H](NC(=O)CNC(=O)[C@H](CCC(N)=O)NC(=O)C(C)(C)NC(=O)[C@@H](N)Cc1c[nH]cn1)[C@@H](C)O)[C@@H](C)O)C(=O)N[C@@H](CCC(=O)O)C(=O)N[C@@H](CCC(=O)O)C(=O)N[C@@H](CCC(N)=O)C(=O)N[C@@H](CCCNC(=N)N)C(=O)N[C@@H](CCC(N)=O)C(=O)NC(C)(C)C(=O)N[C@@H](CCC(=O)O)C(=O)N[C@@H](Cc1ccccc1)C(=O)N[C@H](C(=O)N[C@@H](CCC(=O)O)C(=O)N[C@@H](Cc1c[nH]c2ccccc12)C(=O)N[C@@H](CC(C)C)C(=O)N[C@@H](CCCCN)C(=O)N[C@@H](C)C(=O)N[C@H](C)C(=O)NCC(=O)N[C@@H](Cc1c[nH]cn1)C(=O)N1CCC[C@H]1C(=O)N[C@@H](CO)C(=O)NC(C)(C)C(=O)N[C@@H](CCCCN)C(=O)N1CCC[C@H]1C(=O)N1CCC[C@H]1C(=O)N1CCC[C@H]1C(=O)N[C@@H](CCCCN)C(N)=O)[C@@H](C)CC)C(=O)O)C(=O)O [SEQ ID NO: 19, H-Aib-Q-G-T-F-T-S-D-L-S-K-L-K[gGlu-gGlu-AEEA-Palm]-E-E-Q-R-Q-Aib-E-F-I-E-W-L-K-A-dAla-G-H-P-S-Aib-K-P-P-P-K-NH2] (H-H[Aib]QGTFTSDLSKLK([γGlu-γGlu-AEEA-Palmitoyl])EEQRQ[Aib]EFIEWLKA[dA]GHPS[Aib]KPPPK-NH2) | 7.9 pM | >45 h | −0.1 nm | 3.1 nm | 3.0 nm | 6.0% | > 9200 µg/mL |
